Results published in publication PMC10041525, “New Dual Inhibitors of Bacterial Topoisomerases with Broad-Spectrum Antibacterial Activity and In Vivo Efficacy against Vancomycin-Intermediate Staphylococcus aureus” (Journal of Medicinal Chemistry, 2023).
Values after ≈ are worked out from the molar mass of the structure shown.

Assays:
[1] = tested on: P. aeruginosa PAO1, PAO750; experiment: MIC, wild-type vs efflux-defective; format: cell-based; conditions: Pseudomonas aeruginosa
[2] = target: S. aureus topo IV (Staphylococcus aureus, UniProt P0C1S7)
Experimental: In all experiments, the activity of the
enzymes was determined prior to the testing of the compound and 1 unit (U) was defined as the
amount of enzyme required to just fully supercoil or decatenate the substrate. This amount of
enzyme was initially used in determination of control inhibitor activity. These experiments were
performed in duplicate. […] The final DMSO
concentration was 1% for all assays. All measurements were performed in quadruplicates. The
condition for each reaction were as follows:
− S. aureus gyrase supercoiling assay
1 U of S. aureus gyrase was incubated with 0.5 µg of relaxed pBR322 DNA in a 30 µL reaction at
magnesium acetate, 10 mM DTT, 2 mM ATP, 500 mM potassium glutamate and 0.05 mg/mL
− S. aureus topo IV decatenation assay
1 U of S. aureus topo IV was incubated with 20 µg kDNA in a 30 µL reaction at 37 °C for 30
mM ATP, 350 mM potassium glutamate and 0.05 mg/mL albumin.
− A. baumannii gyrase supercoiling assay
1 U of A. baumannii gyrase was incubated with 0.5 µg of relaxed pBR322 DNA in a 30 µL reaction
blue), before being loaded on a 1.0% TAE gel run at 80V for 2 hours. Bands were visualised by
ethidium bromide staining for 20 minutes and destaining for 20 minutes. Gels were scanned using
documentation equipment (GeneGenius, Syngene, Cambridge, UK) and % inhibition levels were
measured by determining the relative fluorescence of the supercoiled band using gel scanning
software. […]

[3] = in vivo pharmacokinetics, IV; parameters: species or system male CD-1 mice
Experimental: The in vivo pharmacokinetic studies of 7a were performed by Selvita d.o.o. (Zagreb, Croatia) in male CD-1 mice (Charles River). The test compound was administered via intravenous (iv) bolus at a dose of 1 mg/kg (dose volume 5 mL/kg). Blood samples were collected from the tail vein 0.05, 0.25, 0.5, 1.0, 2.0, 4.0, 8.0, and 24 h after administration from three animals per time point. Each animal was sampled 2–4 times throughout the time course of collection (six animals were used totally per each route). Blood samples were centrifuged at 1560g for 10 min at 4 °C. The samples were analyzed by LC–MS/MS. Prior to analysis, the samples were prepared by protein precipitation {20 μL of plasma + 20 μL of water + 240 μL of extraction solvent [acetonitrile/methanol (2:1 v/v) with 100 ng/mL diclofenac (IS)]}, and the extracts were diluted with water (1:3 v/v).
For LC–MS/MS analysis, a Shimadzu prominence HPLC system was used (HPLC pump: LC30AD, autosampler: SIL30ACMP, column oven: CTO30A) connected to an Applied Biosystems mass spectrometer (QTRAP 5500) operating in the positive TurboIonSpray mode. For separation, a Waters Acquity UPLC BEH C18 1.7 μm, 2.1 × 50 mm (Waters, Milford, MA) column was used, with an injection volume of 1 or 2 μL and a flow rate of 0.5 mL/min. The mobile phase consisted of 0.1% formic acid in water (solvent A) and 0.1% formic acid in acetonitrile (solvent B). Gradient: 0–0.05 min, 5% B; 0.05–0.80 min, 5–85% B; 0.80–1.00, 85% B; 1.00–1.01, 85–95% B; 1.01–1.50, 95% B; 1.50–1.51, 95–5% B, 1.51–2.00, 5% B.
Pharmacokinetic analysis was performed using WinNonlin Phoenix software (Certara, version 8.3) from the mean animal plasma concentration per group, per time point, non-compartmental analysis, and the target dose.

[4] = formulation solubility study; format: physicochemical
Experimental: For the actual in vivo assay, a […] pH was used, and the compound was prepared in a formulation of 100 mM carbonate buffer at pH 8.4 with 20% hydroxypropyl β-cyclodextrin.
Solubility analysis was performed on an Acquity UPLC instrument (Waters, Milford, MA, USA). A Waters BEH C18 column (2.1 × 50 mm, 1.7 μm; Waters) was used at T = 40 °C, with the flow rate of 0.5 mL/min; PDA UV detection at λ = 256 nm; mobile phase A: 0.1% formic acid in ultrapure water; mobile phase B: 0.1% formic acid in acetonitrile. Gradient: 0–4 min, 5–100% B; 4–5 min, 100% B; 5–5.1 min, 100–5% B; 5.1–7 min, 5% B.

[5] = tested on: A. baumannii ATCC 19606; experiment: MIC broth microdilution (CLSI); format: cell-based; conditions: Acinetobacter baumannii, ATCC19606; ATCC 19606 used for 7l, 8b, 14, 16b, 16c; read-out: MIC
Experimental: (§1) MICs (Tables 1 and S1–S3) were determined with a standard serial broth microdilution technique according to Clinical and Laboratory Standards Institute (CLSI) guidelines.[45] Cation-adjusted Mueller Hinton broth 2 (MHBII) was used for bacterial growth under standard laboratory conditions and for antimicrobial susceptibility tests. MHBII broth was prepared by dissolving 22 g of MHBII powder [containing beef extract (3 g), acid hydrolysate of casein (17.5 g), and starch (1.5 g); Becton Dickinson and Co.] in 1 L of water. To prepare MHBII agar, 14 g of agar (Bacto; Molar Chemicals) was added to 1 L of broth.
(§2) Bacterial strains were inoculated onto MHBII agar plates and grown overnight at 37 °C. Next, three individual colonies from each strain were inoculated into 1 mL of MHBII medium and propagated at 37 °C overnight, with agitation at 250 rpm. For Enterococcus sp., the cells were plated in brain–heart infusion [(BHI) medium] agar plates, and BHI broth was used to determine the MICs. […] The highest final DMSO concentration in the experiments was 0.64% (in the case of the 64 μg/mL concentration of the inhibitor). Following the dilutions, each well was seeded with 5 × 10^4 bacterial cells (in 100 μL final volume). Each measurement was performed in three parallel replicates, and to avoid possible edge effects in the microwell plates, the outside rows (A, H) were filled with sterile medium. Following the inoculations, the plates were covered with the lids and wrapped in polyethylene plastic bags, to minimize evaporation but to allow O2 transfer. The plates were incubated at 37 °C under continuous shaking at 150 rpm for 18 h. After incubation, the OD600 of each well was measured using a microplate reader (Synergy 2; Biotek). The MICs were defined as the antibiotic concentrations which inhibited the growth of the bacterial cultures; that is, the drug concentration where the average OD600 increment of the three technical replicates was below 1.5-fold the background OD increment.
(§3) cMIC, minimum inhibitory concentration
(§4) Bacterial strains that were used: S. aureus ATCC 29213, S. aureus (MRSA) ATCC 43300, S. aureus (VISA) ATCC 700699, E. faecalis ATCC 29212, E. faecium ATCC 700221,
(§5) E. coli ATCC 25922, P. aeruginosa ATCC 27853 (PAO1 for compounds 7l, 8b, 14), A. baumannii ATCC 17978 (ATCC 19606 for compounds 7l, 8b, 14), K. pneumoniae ATCC
(§6) Measurements were performed according to the Clinical and Laboratory Standards Institute guidelines, with three independent measurements.

[6] = tested on: P. aeruginosa PAO1; experiment: MIC broth microdilution (CLSI); format: cell-based; conditions: Pseudomonas aeruginosa; PAO1 used for 7l, 8b, 14, 16b, 16c
Experimental: as §1, §2, §3, §4, §5, §6

[7] = tested on: K. pneumoniae ATCC 13883; experiment: MIC broth microdilution (CLSI); format: cell-based; conditions: Klebsiella pneumoniae, ATCC13883; ATCC 13883 used for 7l, 8b, 14, 16b, 16c
Experimental: as §1, §2, §3, §4, §5, §6

[8] = male, CD-1, mouse, plasma, IV 1 mg/kg

Chain of S. aureus topo IV (P0C1S7 whole entry): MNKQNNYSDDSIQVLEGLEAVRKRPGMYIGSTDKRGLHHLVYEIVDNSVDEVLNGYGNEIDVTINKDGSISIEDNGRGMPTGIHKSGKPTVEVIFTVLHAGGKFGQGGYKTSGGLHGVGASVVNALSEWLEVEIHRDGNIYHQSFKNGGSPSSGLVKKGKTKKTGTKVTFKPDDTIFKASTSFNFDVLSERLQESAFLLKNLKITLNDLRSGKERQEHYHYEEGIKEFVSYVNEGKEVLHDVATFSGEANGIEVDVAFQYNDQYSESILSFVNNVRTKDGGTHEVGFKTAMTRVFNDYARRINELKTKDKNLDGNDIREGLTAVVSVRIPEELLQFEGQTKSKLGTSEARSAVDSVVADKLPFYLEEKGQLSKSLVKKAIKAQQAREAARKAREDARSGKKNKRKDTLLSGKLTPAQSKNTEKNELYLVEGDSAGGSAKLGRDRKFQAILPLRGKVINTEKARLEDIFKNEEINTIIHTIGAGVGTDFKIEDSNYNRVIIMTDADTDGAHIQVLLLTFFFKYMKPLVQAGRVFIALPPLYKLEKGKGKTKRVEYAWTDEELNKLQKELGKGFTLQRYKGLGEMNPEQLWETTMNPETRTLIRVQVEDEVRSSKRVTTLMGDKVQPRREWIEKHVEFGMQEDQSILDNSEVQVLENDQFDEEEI
Chain of S. aureus topo IV (P0C1U9 whole entry, further chain): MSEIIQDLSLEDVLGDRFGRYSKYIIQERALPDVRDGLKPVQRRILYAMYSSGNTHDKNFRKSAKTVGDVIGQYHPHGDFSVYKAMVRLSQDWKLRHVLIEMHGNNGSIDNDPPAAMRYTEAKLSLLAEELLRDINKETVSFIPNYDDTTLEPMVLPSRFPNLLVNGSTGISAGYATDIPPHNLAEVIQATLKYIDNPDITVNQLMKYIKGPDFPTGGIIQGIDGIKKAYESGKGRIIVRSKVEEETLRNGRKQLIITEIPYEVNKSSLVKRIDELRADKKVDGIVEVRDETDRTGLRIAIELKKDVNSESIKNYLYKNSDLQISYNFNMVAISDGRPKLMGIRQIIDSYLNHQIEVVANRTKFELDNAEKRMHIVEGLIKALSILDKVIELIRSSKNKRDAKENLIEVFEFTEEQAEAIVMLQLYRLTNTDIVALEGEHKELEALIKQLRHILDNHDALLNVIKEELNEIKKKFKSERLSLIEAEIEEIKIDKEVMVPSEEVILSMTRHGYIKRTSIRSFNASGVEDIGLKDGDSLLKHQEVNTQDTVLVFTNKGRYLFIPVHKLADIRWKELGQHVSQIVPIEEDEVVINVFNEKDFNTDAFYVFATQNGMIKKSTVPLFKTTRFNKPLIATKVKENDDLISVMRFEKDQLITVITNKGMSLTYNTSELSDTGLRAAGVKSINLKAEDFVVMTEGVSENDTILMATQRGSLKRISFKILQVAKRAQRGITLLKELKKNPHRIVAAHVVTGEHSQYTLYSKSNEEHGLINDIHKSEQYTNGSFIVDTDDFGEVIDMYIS

SMILES | MIC ([1]; PAO1, P. aeruginosa PAO1) | MIC ([1]; PAO1, P. aeruginosa PAO750, efflux-defective) | IC50 [2] | plasma clearance as % of liver blood flow ([3]; assuming 90 mL/min/kg) | AUC(0-inf) at 24 h [3, 8] | C0 at 24 h [3, 8] | clearance at 24 h [3, 8] | half-life at 24 h [3, 8] | AUC(0-t) at 24 h ([3]; male, CD-1, mouse, plasma, IV 1 mg/kg, read-out: AUC0–24h) | Vd at 24 h ([3]; male, CD-1, mouse, plasma, IV 1 mg/kg, read-out: Vss) | solubility ([4]; 100 mM carbonate buffer with 20% CD, pH 8.0, 20% CD) | solubility ([4]; 100 mM carbonate buffer, pH 9.0, 20% hydroxypropyl β-cyclodextrin) | MIC [5] | MIC [6] | MIC [7]
Cc1[nH]c(C(=O)Nc2nc3c(N4CCOCC4)cc(C(=O)O)cc3s2)c(Cl)c1Cl [7a, 2-(3,4-Dichloro-5-methyl-1H-pyrrole-2-carboxamido)-4-morpholinobenzo[d]thiazole-6-carboxylic Acid] | > 64 µg/mL | 0.25 µg/mL (≈ 0.000549 mM) | 8 ± 1.2 nM | 61% | 304 ng·h/mL | 913 ng/mL | 54.8 mL/min/kg | 1 h | 303 ng·h/mL | 2.3 L/kg | 3800 µg/mL (≈ 8.35 mM) | 13200 µg/mL (≈ 29 mM) |  |  | 
Cc1[nH]c(C(=O)Nc2nc3c(N4CCOCC4)cc(C(=O)O)cc3s2)cc1F [16b, 2-(4-Fluoro-5-methyl-1H-pyrrole-2-carboxamido)-4-morpholinobenzo[d]thiazole-6-carboxylic Acid] |  |  |  |  |  |  |  |  |  |  |  |  | > 64 µg/mL | > 64 µg/mL | > 64 µg/mL
